Results reported in patent US20110237493A1, “DIPEPTIDE LINKED MEDICINAL AGENTS” (priority 2008, published 2011).
Where two headings read alike, the source gives them in different places. Where a SMILES comes first, the peptide text is derived from it. [ ]: non-standard residue; d: D form. NHexGly = CCCCCCNCC(=O)O; Sar = CNCC(=O)O

What was measured:
[1] = Rate of model dipeptide cleavage in PBS (HPLC / LC-MS); conditions: for half-life at 1 mg/ml: buffer; for Relative peak area (%) HPLC peak a (molecular weight 702) / Relative peak area (%) HPLC peak b (molecular weight 902): PBS, 37° C.
Protocol: The solution was incubated at 37° C. […] The dipeptide cleavage was quenched by lowering the pH with an equal volume of 0.1% TFA. The rate of cleavage was qualitatively monitored by LC-MS and quantitatively studied by HPLC. The retention time and relative peak area for the prodrug and the parent model peptide were quantified using Peak Simple Chromatography software.
The flow rate was 1 ml/min.
The concentrations of the prodrugs and the model parent peptide were determined by their respective peak areas, ‘a’ and ‘b’ for each of the different collection times (Table 1). […] The slope of this plot provides the rate constant ‘k’.

[2] = plasma

SMILES: C[C@@H](O)[C@H](NC(=O)CNC(=O)[C@H](CCCNC(=N)N)NC(=O)[C@H](CO)NC(=O)[C@H](Cc1c[nH]cn1)NC(=O)CN(C)C(=O)C(C)(C)N)C(=O)N[C@@H](Cc1ccccc1)C(N)=O [Compound 24]
- half-life at 1 mg/ml [1]: 0.817 h

SMILES: CCCCCCN(CC(=O)N[C@@H](Cc1c[nH]cn1)C(=O)N[C@@H](CO)C(=O)N[C@@H](CCCNC(=N)N)C(=O)NCC(=O)N[C@H](C(=O)N[C@@H](Cc1ccccc1)C(N)=O)[C@@H](C)O)C(=O)C(C)(C)N [Compound 25]
- half-life at 1 mg/ml [1]: 0.167 h

SMILES: C[C@@H](O)[C@H](NC(=O)CNC(=O)[C@H](CCCNC(=N)N)NC(=O)[C@H](CO)NC(=O)[C@H](Cc1c[nH]cn1)NC(=O)CN(C)C(=O)CN)C(=O)N[C@@H](Cc1ccccc1)C(N)=O [Compound 27] (H-G[Sar]HSRGTF-NH2)
- half-life at 1 mg/ml [1]: 104 h

SMILES: C[C@@H](O)[C@H](NC(=O)CNC(=O)[C@H](CCCNC(=N)N)NC(=O)[C@H](CO)NC(=O)[C@H](Cc1c[nH]cn1)NC(=O)CN(C)C(=O)CO)C(=O)N[C@@H](Cc1ccccc1)C(N)=O [Compound 28]
- half-life at 1 mg/ml [1]: 149 h

SMILES: CCCCCCN(CC(=O)N[C@@H](Cc1c[nH]cn1)C(=O)N[C@@H](CO)C(=O)N[C@@H](CCCNC(=N)N)C(=O)NCC(=O)N[C@H](C(=O)N[C@@H](Cc1ccccc1)C(N)=O)[C@@H](C)O)C(=O)CN [Compound 29] (H-G[NHexGly]HSRGTF-NH2)
- half-life at 1 mg/ml [1]: 70 h

SMILES: C[C@@H](O)[C@H](NC(=O)CNC(=O)[C@H](CCCNC(=N)N)NC(=O)[C@H](CO)NC(=O)[C@H](Cc1c[nH]cn1)NC(=O)CN(C)C(=O)[C@H](N)CCCCN)C(=O)N[C@@H](Cc1ccccc1)C(N)=O [Compound 30]
- half-life at 1 mg/ml [1]: 27 h

SMILES: C[C@@H](O)[C@H](NC(=O)CNC(=O)[C@H](CCCNC(=N)N)NC(=O)[C@H](CO)NC(=O)[C@H](Cc1c[nH]cn1)NC(=O)CN(C)C(=O)[C@@H](N)CCCCN)C(=O)N[C@@H](Cc1ccccc1)C(N)=O [Compound 33]
- t1/2 of cleavage of dipeptide A-B ([1]; in PBS, A-B linked to position 1 (X) of model hexapeptide XSRGTF-NH2): 14 h

SMILES: C[C@@H](O)[C@H](NC(=O)CNC(=O)[C@H](CCCNC(=N)N)NC(=O)[C@H](CO)NC(=O)[C@H](Cc1c[nH]cn1)NC(=O)CN(C)C(=O)[C@@H](N)Cc1ccccc1)C(=O)N[C@@H](Cc1ccccc1)C(N)=O [Compound 34] (H-F[Sar]HSRGTF-NH2)
- half-life at 1 mg/ml [1]: 29 h

SMILES: C[C@@H](O)[C@H](NC(=O)CNC(=O)[C@H](CCCNC(=N)N)NC(=O)[C@H](CO)NC(=O)[C@H](Cc1c[nH]cn1)NC(=O)CN(C)C(=O)[C@@H](N)CO)C(=O)N[C@@H](Cc1ccccc1)C(N)=O [Compound 35] (H-S[Sar]HSRGTF-NH2)
- half-life at 1 mg/ml [1]: 17 h

SMILES: C[C@@H](O)[C@H](NC(=O)CNC(=O)[C@H](CCCNC(=N)N)NC(=O)[C@H](CO)NC(=O)[C@H](Cc1c[nH]cn1)NC(=O)CN(C)C(=O)[C@@H]1CCCN1)C(=O)N[C@@H](Cc1ccccc1)C(N)=O [Compound 36] (H-P[Sar]HSRGTF-NH2)
- half-life at 1 mg/ml [1]: 181 h

SMILES: C[C@@H](O)[C@H](NC(=O)CNC(=O)[C@H](CCCNC(=N)N)NC(=O)[C@H](CO)NC(=O)[C@H](Cc1c[nH]cn1)NC(=O)CN(C)C(=O)[C@@H](N)CCCCN)C(=O)N[C@@H](Cc1ccccc1)C(N)=O [peptide A, Lys-Sar-HSRGTF-NH2]
- Relative peak area (%) HPLC peak a (molecular weight 702) ([1]; 5 h): 26.5%
- Relative peak area (%) HPLC peak b (molecular weight 902) ([1]; 5 h): 73.5%
- Relative peak area (%) HPLC peak a (molecular weight 702) ([1]; 8 h): 28.9%
- Relative peak area (%) HPLC peak b (molecular weight 902) ([1]; 8 h): 71.1%
- Relative peak area (%) HPLC peak a (molecular weight 702) ([1]; 24 h): 28.8%
- Relative peak area (%) HPLC peak b (molecular weight 902) ([1]; 24 h): 71.2%
- Relative peak area (%) HPLC peak a (molecular weight 702) ([1]; 31 h): 77.7%
- Relative peak area (%) HPLC peak b (molecular weight 902) ([1]; 31 h): 22.3%
- Relative peak area (%) HPLC peak a (molecular weight 702) ([1]; 47 h): 90.0%
- Relative peak area (%) HPLC peak b (molecular weight 902) ([1]; 47 h): 10.0%
- half-life at 1 mg/ml [1]: 14 h

SMILES: C[C@H](O)[C@@H](NC(=O)CNC(=O)[C@@H](CCCNC(=N)N)NC(=O)[C@H](NC(=O)[C@@H](Cc1c[nH]cn1)NC(=O)CN(C)C(=O)[C@@H](N)CCCCN)[C@H](C)O)C(=O)N[C@H](Cc1ccccc1)C(N)=O [peptide B, Lys-Sar-dHdTdRGdTdF-NH2] (H-K[Sar][dH][dT][dR]G[dT][dF]-NH2)
- Relative peak area (%) HPLC peak a (molecular weight 702) ([2]; 5 h): 17.0%
- Relative peak area (%) HPLC peak b (molecular weight 902) ([2]; 5 h): 83.0%
- Relative peak area (%) HPLC peak a (molecular weight 702) ([2]; 11 h): 29.2%
- Relative peak area (%) HPLC peak b (molecular weight 902) ([2]; 11 h): 70.8%
- Relative peak area (%) HPLC peak a (molecular weight 702) ([2]; 24 h): 60.2%
- Relative peak area (%) HPLC peak b (molecular weight 902) ([2]; 24 h): 39.8%
- Relative peak area (%) HPLC peak a (molecular weight 702) ([2]; 32 h): 54.0%
- Relative peak area (%) HPLC peak b (molecular weight 902) ([2]; 32 h): 46.0%
- Relative peak area (%) HPLC peak a (molecular weight 702) ([2]; 48 h): 27.6%
- Relative peak area (%) HPLC peak b (molecular weight 902) ([2]; 48 h): 72.4%
